# Read-outs that look alike come from different tables or passages of the source.
# How the values were obtained:
# Test in all cases: MIC in agar plate culture-dilution assay
# Assay type in all cases: cell-based
# [1] = tested on: Bacillus subtilis ATCC 6633; conditions: ATCC6633
# Text: (§1) The compounds of the formula (I) and salts thereof of the present invention are new, and have high and broad antibacterial activity capable of inhibiting the growth of pathogenic microorganisms of a broad range including gram-positive and gram-negative bacteria. In order to show the usability of the compounds of the formula (I), the antibacterial activity of some typical compounds of the formula (I) was actually measured, and the results are given in the following Table-1.
# (§2) MIC in agar plate culture-dilution assay (Y/ml)
# [2] = tested on: Citrobacter freundii GN-346; conditions: GN346
# Text: as §1, §2
# [3] = tested on: Enterobacter cloacae GN-7471; conditions: GN7471
# Text: as §1, §2
# [4] = tested on: Escherichia coli NIHJ JC-2; conditions: NIHJJC2
# Text: as §1, §2
# [5] = tested on: Klebsiella pneumoniae GN-69; conditions: GN69
# Text: as §1, §2
# [6] = tested on: Proteus rettgeri GN-624; conditions: Providencia rettgeri, GN624
# Text: as §1, §2
# [7] = tested on: Proteus vulgaris GN-76; conditions: GN76
# Text: as §1, §2
# [8] = tested on: Pseudomonas aeruginosa E-2; conditions: E2
# Text: as §1, §2
# [9] = tested on: Pseudomonas aeruginosa IAM-1007; conditions: IAM1007
# Text: as §1, §2
# [10] = tested on: Pseudomonas aeruginosa M-0148; conditions: M0148
# Text: as §1, §2
# [11] = tested on: Serratia marcescens No. 1
# Text: as §1, §2
# [12] = tested on: Staphylococcus aureus 209P JC-1
# Text: as §1, §2
# [13] = tested on: Staphylococcus aureus Smith (1)
# Text: as §1, §2
# [14] = tested on: Pseudomonas maltophilia M-0627; conditions: Stenotrophomonas maltophilia, M0627
# Text: as §1, §2
# [15] = Bacillus subtilis ATCC 6633, agar plate culture-dilution, read-out: MIC
# [16] = Citrobacter freundii GN-346, agar plate culture-dilution, read-out: MIC
# [17] = Enterobacter cloacae GN-7471, agar plate culture-dilution, read-out: MIC
# [18] = Klebsiella pneumoniae GN-69, agar plate culture-dilution, read-out: MIC
# [19] = Proteus rettgeri GN-624, agar plate culture-dilution, read-out: MIC
# [20] = Proteus vulgaris GN-76, agar plate culture-dilution, read-out: MIC
# [21] = Pseudomonas aeruginosa E-2, agar plate culture-dilution, read-out: MIC
# [22] = Pseudomonas aeruginosa IAM-1007, agar plate culture-dilution, read-out: MIC
# [23] = Pseudomonas aeruginosa M-0148, agar plate culture-dilution, read-out: MIC
# [24] = Serratia marcescens No. 1, agar plate culture-dilution, read-out: MIC
# [25] = Staphylococcus aureus 209P JC-1, agar plate culture-dilution, read-out: MIC
# [26] = Staphylococcus aureus Smith (1), agar plate culture-dilution, read-out: MIC
# [27] = Pseudomonas maltophilia M-0627, agar plate culture-dilution, read-out: MIC
"MIC [1, 15] [µg/mL]","MIC [2, 16] [µg/mL]","MIC [3, 17] [µg/mL]",MIC [4] [µg/mL],"MIC [5, 18] [µg/mL]","MIC [6, 19] [µg/mL]","MIC [7, 20] [µg/mL]","MIC [8, 21] [µg/mL]","MIC [9, 22] [µg/mL]","MIC [10, 23] [µg/mL]","MIC [11, 24] [µg/mL]","MIC [12, 25] [µg/mL]","MIC [13, 26] [µg/mL]","MIC [14, 27] [µg/mL]",Compound,further results
3.13,0.78,1.56,0.05,0.05,0.1,0.2,0.1,0.2,1.56,0.2,1.56,1.56,–,"Nc1nc(C(NC(=O)c2cc(=O)c(O)cn2O)C(=O)N[C@@H]2C(=O)N3C(C(=O)[O-])=C(CSc4cc[n+](C5CC5)cc4)CS[C@H]23)cs1 (stereo partly drawn) [Example 8, (6R,7R)7-[(RS)2-(2-Aminothiazol-4-yl)-2-(1,5-dihydroxy-4-pyridone-2-carboxamido)acetamido]-3-(1-cycloproylpyridinium-4-yl)thiomethyl-ceph-3-em-4-carboxylate]",–
3.13,0.78,1.56,0.05,0.05,0.1,0.39,0.05,0.1,0.78,0.2,1.56,3.13,–,"Nc1nc(C(NC(=O)c2cc(=O)c(O)cn2O)C(=O)N[C@@H]2C(=O)N3C(C(=O)[O-])=C(CSc4cc[n+](CCO)cc4)CS[C@H]23)cs1 (stereo partly drawn) [Example 5, (6R,7R)7-[(RS)2-(2-Aminothiazol-4-yl)-2-(1,5-dihydroxy-4-pyridone-2-carboxamido)acetamido]-3-[1-(2-hydoroxyethyl)pyridinium-4-yl]thiomethyl-ceph-3-em-4-carboxylate]",–
3.13,0.39,1.56,0.1,0.05,3.13,0.2,0.05,0.2,0.2,0.78,3.13,3.13,3.13,"Nc1nc(C(NC(=O)c2cc(=O)c(O)cn2O)C(=O)N[C@@H]2C(=O)N3C(C(=O)O)=C(CSc4nc5ccccc5s4)CS[C@H]23)cs1 (stereo partly drawn) [Example 26, (6R,7R)7-[(RS)2-(2-Aminothiazol-4-yl)-2-(1,5-dihydroxy-4-pyridone-2-carboxamido)acetamido]-3-(benzothiazol-2-yl)thiomethyl-ceph-3-em-4-carboxylic acid]",–
3.13,1.56,1.56,0.05,0.1,0.2,0.2,0.05,0.1,0.78,0.2,1.56,3.13,–,"NC(=O)C[n+]1ccc(SCC2=C(C(=O)[O-])N3C(=O)[C@@H](NC(=O)C(NC(=O)c4cc(=O)c(O)cn4O)c4csc(N)n4)[C@H]3SC2)cc1 (stereo partly drawn) [Example 6, (6R,7R)7-[(RS)2-(2-Aminothiazol-4-yl)-2-(1,5-dihydroxy-4-pyridone-2-carboxamido)acetamido]-3-(1-carbamoylmethylpyridinium-4-yl)thiomethyl-ceph-3-em-4-carboxylate]",–
3.13,0.78,6.25,0.05,0.05,3.13,0.1,0.05,0.1,0.2,0.2,3.13,6.25,1.56,"Nc1nc(C(NC(=O)c2cc(=O)c(O)cn2O)C(=O)N[C@@H]2C(=O)N3C(C(=O)O)=C(CSc4cnns4)CS[C@H]23)cs1 (stereo partly drawn) [Example 25, (6R,7R)7-[(RS)2-(2-Aminothiazol-4-yl)-2-(1,5-dihydroxy-4-pyridone-2-carboxamido)acetamido]-3-(1,2,3-thiadiazol-5-yl)thiomethyl-ceph-3-em-4-carboxylic acid]",–
1.56,0.39,3.13,0.1,0.2,1.56,0.78,0.2,6.25,50,0.2,0.78,0.78,50,"C[n+]1ccc(SCC2=C(C(=O)[O-])N3C(=O)[C@@H](NC(=O)C(NC(=O)c4cc(=O)c(O)c[nH]4)c4csc(N)n4)[C@H]3SC2)cc1 (stereo partly drawn) [A, reference compound]",–
3.13,0.78,0.78,< 0.025,0.1,0.1,0.2,0.1,0.05,1.56,0.2,3.13,3.13,6.25,"Nc1nc(C(NC(=O)c2cc(=O)c(O)cn2O)C(=O)N[C@@H]2C(=O)N3C(C(=O)[O-])=C(CSc4cc[n+](CC(=O)O)c5c4CCC5)CS[C@H]23)cs1 (stereo partly drawn) [Example 17, (6R,7R)7-[(RS)2-(2-Aminothiazol-4-yl)-2-(1,5-dihydroxy-4-pyridone-2-carboxamido)acetamido]-3-(2,3-cyclopenteno-1-carboxylmethylpyridinium-4-yl)-thiomethyl-ceph-3-em-4-carboxylate]",–
6.25,0.78,1.56,0.1,0.2,1.56,0.39,0.1,< 0.025,3.13,0.39,3.13,3.13,6.25,"Nc1nc(C(NC(=O)c2cc(=O)c(O)cn2O)C(=O)N[C@@H]2C(=O)N3C(C(=O)O)=C(CSc4ccncc4)CS[C@H]23)cs1 (stereo partly drawn) [Example 16, (6R,7R)7-[(RS)2-(2-Aminothiazol-4-yl)-2-(1,5-dihydroxy-4-pyridone-2-carboxamido)acetamido]-3-(pyridine-4-yl)thiomethyl-ceph-3-em-4-carboxylic acid]",–
6.25,0.1,0.78,0.05,< 0.025,0.1,0.1,< 0.025,< 0.025,0.2,0.1,1.56,1.56,6.25,"C[n+]1ccc(SCC2=C(C(=O)[O-])N3C(=O)[C@@H](NC(=O)C(NC(=O)c4cc(=O)c(O)cn4O)c4csc(N)n4)[C@H]3SC2)c2c1CCC2 (stereo partly drawn) [Example 14, (6R,7R)7-[(RS)2-(2-Aminothiazol-4yl)-2-(1,5-dihydroxy-4-pyridone-2-carboxamido)acetamido]-3-(2,3-cyclopenteno-1-methylpyridinium-4-yl)-thiomethyl-ceph-3-em-4-carboxylate]",–
12.5,6.25,3.13,0.1,0.1,0.2,0.39,0.1,0.2,0.39,0.2,3.13,3.13,–,"C[n+]1cccc(SCC2=C(C(=O)[O-])N3C(=O)[C@@H](NC(=O)C(NC(=O)c4cc(=O)c(O)cn4O)c4csc(N)n4)[C@H]3SC2)c1 (stereo partly drawn) [Example 4, (6R,7R)7-[(RS)2-(2-Aminothiazol-4-yl)-2-(1,5-dihydroxy-4-pyridone-2-carboxamido)acetamido]-3-(1-methylpyridinium-3-yl)thiomethyl-ceph-3-em-4-carboxylate]",–

Compound,"MIC [1, 15] [µg/mL]","MIC [2, 16] [µg/mL]","MIC [3, 17] [µg/mL]",MIC [4] [µg/mL],"MIC [5, 18] [µg/mL]","MIC [6, 19] [µg/mL]","MIC [7, 20] [µg/mL]","MIC [8, 21] [µg/mL]","MIC [9, 22] [µg/mL]","MIC [10, 23] [µg/mL]","MIC [11, 24] [µg/mL]","MIC [12, 25] [µg/mL]","MIC [13, 26] [µg/mL]","MIC [14, 27] [µg/mL]",further results
"CC(C)(O/N=C(\C(=O)N[C@@H]1C(=O)N2C(C(=O)[O-])=C(C[n+]3ccccc3)CS[C@H]12)c1csc(N)n1)C(=O)O [B, ceftazidime, reference compound]",–,–,–,0.2,–,–,–,–,–,–,–,–,–,–,"MIC ([1]; Bacillus subtilis): 6.25 µg/mL; MIC ([2]; Citrobacter freundii): 0.78 µg/mL; MIC ([3]; Enterobacter cloacae): 3.13 µg/mL; MIC ([5]; Klebsiella pneumoniae): 0.1 µg/mL; MIC [6]: 0.39 µg/mL; MIC ([7]; Proteus vulgaris): 0.05 µg/mL; MIC ([8]; Pseudomonas aeruginosa): 1.56 µg/mL; MIC ([9]; Pseudomonas aeruginosa): 1.56 µg/mL; MIC ([10]; Pseudomonas aeruginosa): 3.13 µg/mL; MIC [14]: 50 µg/mL; MIC ([11]; Serratia marcescens, NO.1): < 0.025 µg/mL; MIC ([12]; Staphylococcus aureus, 209P): 3.13 µg/mL; MIC ([13]; Staphylococcus aureus): 3.13 µg/mL"
